Source: patent US4200629A, “Anti-fungal substance and preparing method thereof” (priority 1977, dated 1980)
Structures can show the parent of a compound that is named as a salt.

How the values were obtained:
Candida albicans = assay: inhibitory effect, antifungal test disk (Test Example 2); type: cell-based; details: 8 mm disk, 0.005 g active ingredient
Source text: (§1) Each test fungal liquid was mixed with a Sabouraud's agar medium containing 0.1% of Tween 80 to form a multilayered fungal agar film, which was then solidified.

[1] = tested on: Trichophyton mentagrophytes; assay: as above; type: cell-based; details: 8 mm disk, 0.005 g active ingredient
Source text: as §1

Aspergillus fumigatus = assay: as above; type: cell-based; details: 8 mm disk, 0.005 g active ingredient
Source text: as §1

[2] = solubility in phosphate buffer solution
Cryptococcus neoformans = assay: inhibitory effect, antifungal test disk (Test Example 2); type: cell-based; details: 8 mm disk, 0.005 g active ingredient
Source text: as §1

[3] = tested on: medical fungi (Aspergillus, Candida, Trichophyton); assay: growth inhibition of fungi (general statements); type: cell-based
Procedure: Each of the components is separated and tested with respect to the activity of growth inhibition of Aspergillus fumigatus, Candida albicans and Trichophyton mentagrophytes, respectively, according to the disk method.
Using 0.01 ml. of the resulting solution, the growth inhibitory effect of each powder against fungi was tested according to the disk method.

[4] = acute toxicity, LD50 oral; details: mouse, in vivo, comparison with NT-72 orally in mice, source not stated

C[C@@H]1[C@H](O)[C@@H](C)/C=C/C=C/CC/C=C/C=C/C=C/C=C/C(O[C@H]2O[C@H](C)[C@@H](O)[C@H](N)[C@@H]2O)CC2O[C@](O)(CC(O)C(O)CCC(O)CC(O)CC(O)CC(=O)O[C@H]1C)CC(O)C2C(=O)O (some centres unmarked) [Nystatin]
inhibitory circle diameter (Candida albicans): 21 mm | inhibitory circle diameter [1]: 12.5 mm | inhibitory circle diameter (Aspergillus fumigatus): 12 mm | solubility in the phosphate buffer solution [2]: not sufficiently soluble | inhibitory circle diameter (Cryptococcus neoformans): 11 mm

Clc1ccccc1C(c1ccccc1)(c1ccccc1)n1ccnc1 [Byb 5097]
inhibitory circle diameter (Candida albicans): 17 mm | inhibitory circle diameter (Trace) (Candida albicans): 22 mm | inhibitory circle diameter [1]: 24 mm | inhibitory circle diameter (Aspergillus fumigatus): 12.5 mm | inhibitory circle diameter (Trace) (Aspergillus fumigatus; trace): 18 mm | solubility in the phosphate buffer solution [2]: not sufficiently soluble | inhibitory circle diameter (Trace) (Cryptococcus neoformans; trace): 18 mm

COc1ccc2cc3[n+](cc2c1OC)CCc1cc2c(cc1-3)OCO2 [berberine hydrochloride]
activity of butanol extract after sodium borohydride reduction [3]: does not show the activity | LD50 [4]: 60 to 70 mg/kg

C[C@@H]1[C@H](O)[C@@H](C)/C=C/C=C/C=C/C=C/C=C/C=C/C=C/[C@H](O[C@@H]2O[C@H](C)[C@@H](O)[C@H](N)[C@@H]2O)C[C@@H]2O[C@](O)(C[C@@H](O)C[C@@H](O)[C@H](O)CC[C@@H](O)C[C@@H](O)CC(=O)O[C@H]1C)C[C@H](O)[C@H]2C(=O)O [Amphotericin B]
inhibitory circle diameter (Candida albicans): 11 mm | inhibitory circle diameter (Trace) (Candida albicans): 14 mm | inhibitory circle diameter [1]: 8.5 mm
